According to patent US20220073554A1, “LINCOSAMIDE ANTIBIOTICS AND USES THEREOF” (President and Fellows of Harvard College, priority 2017, published 2022):
≈ marks a conversion by molar mass, not a printed value. Where two headings read alike, the source gives them in different places.

What was measured:
Type in all cases: cell-based
S. aureus ATCC 29213 = assay: MIC against S. aureus ATCC 29213
[1] = tested on: S. aureus MP-549 msr(a) USA 300; assay: MIC against S. aureus MP-549 msr(a) USA 300; conditions: Staphylococcus aureus, USA300, S. aureus MP-549 msr(a) USA 300
S. pneumoniae ATCC 49619 = assay: MIC against S. pneumoniae ATCC 49619; conditions: Streptococcus pneumoniae, ATCC49619
S. pyogenes ATCC 19615 = assay: MIC against S. pyogenes ATCC 19615; conditions: Streptococcus pyogenes, ATCC19615; S. pyogenes ATCC 19615; read-out: MIC
E. faecalis ATCC 29212 = assay: MIC against E. faecalis ATCC 29212; conditions: Enterococcus faecalis, ATCC29212, read-out: MIC
K. pneumoniae ATCC 10031 = assay: MIC against K. pneumoniae ATCC 10031; conditions: Klebsiella pneumoniae, ATCC10031; K. pneumoniae ATCC 10031; read-out: MIC
E. coli ATCC 25922 = assay: MIC against E. coli ATCC 25922; conditions: Escherichia coli, ATCC25922
E. coli ATCC 15922 = assay: MIC against E. coli ATCC 15922; conditions: Escherichia coli, ATCC15922; E. coli ATCC 15922; read-out: MIC
E. coli MP-9 ΔTolC = assay: MIC against E. coli MP-9 ΔTolC; conditions: Escherichia coli
S. aureus BAA 977 iErmA = assay: MIC against S. aureus BAA 977 iErmA; conditions: Staphylococcus aureus, BAA977
S. aureus MMX 3035 cErmA = assay: MIC against S. aureus MMX 3035 cErmA; conditions: Staphylococcus aureus, MMX3035CERMA; S. aureus MMX 3035 cErmA; read-out: MIC
[2] = tested on: S. pyogenes MMX 946 Macrolide-Resistant; assay: MIC against S. pyogenes MMX 946 Macrolide-Resistant; conditions: Streptococcus pyogenes; S. pyogenes MMX 946 Macrolide-Resistant (MacRes); read-out: MIC
[3] = tested on: E. faecalis MMX 847 Macrolide-Resistant; assay: MIC against E. faecalis MMX 847 Macrolide-Resistant; conditions: Enterococcus faecalis; E. faecalis MMX 847 Macrolide-Resistant (MacRes); read-out: MIC
H. influenzae ATCC 49247 = assay: MIC against H. influenzae ATCC 49247; conditions: Haemophilus influenzae, ATCC49247
[4] = tested on: E. coli MP-74 LptD mutant; assay: MIC against E. coli MP-74 LptD mutant; conditions: Escherichia coli
[5] = Staphylococcus aureus, ATCC29213, S. aureus ATCC 29213, read-out: MIC
[6] = S. pneumoniae ATCC 49619, read-out: MIC
[7] = E. coli ATCC 25922, read-out: MIC
[8] = H. influenzae ATCC 49247, read-out: MIC
[9] = Staphylococcus aureus, ATCC29213

Compound	MIC (S. aureus ATCC 29213; [5]) [µg/mL]	MIC [1] [µg/mL]	MIC (S. pneumoniae ATCC 49619; [6]) [µg/mL]	MIC (S. pyogenes ATCC 19615) [µg/mL]	MIC (E. faecalis ATCC 29212) [µg/mL]	MIC (E. coli ATCC 25922; [7]) [µg/mL]	MIC (E. coli MP-9 ΔTolC) [µg/mL]	other results
COc1ccc(C2=CCO[C@@H]3[C@H](CN[C@@H]3C(=O)N[C@H]([C@H](C)Cl)[C@H]3OC(SC)[C@H](O)[C@H](O)C3O)C2)cc1 (stereo partly drawn) [FSA-511020]	0.5 (≈ 0.921 µM)	1 (≈ 1.84 µM)	≤ 0.06	≤ 0.06	4 (≈ 7.37 µM)	> 64		MIC (K. pneumoniae ATCC 10031): > 64 µg/mL
CSC1O[C@H]([C@H](NC(=O)[C@H]2NC[C@@H]3CC(c4ccc(C#N)cc4)=CCO[C@H]32)[C@H](C)Cl)C(O)[C@@H](O)[C@H]1O (stereo partly drawn) [FSA-511033]	0.5 (≈ 0.929 µM)	1 (≈ 1.86 µM)	≤ 0.06	≤ 0.06	2 (≈ 3.72 µM)	> 64		
CSC1O[C@H]([C@H](NC(=O)[C@H]2NC[C@@H]3CC(c4ccc(C)cc4)CCO[C@H]32)[C@H](C)Cl)C(O)[C@@H](O)[C@H]1O (stereo partly drawn) [FSA-511044]	0.23 (≈ 0.435 µM)	0.5 (≈ 0.945 µM)		≤ 0.06	2 (≈ 3.78 µM)			MIC (S. pneumoniae ATCC 49619): 0.5 µg/mL (≈ 0.945 µM); MIC (E. coli ATCC 15922): > 64 µg/mL
CSC1O[C@H]([C@H](NC(=O)[C@H]2NC[C@@H]3C[C@@H](c4ccc(C#N)cc4)CCO[C@H]32)[C@H](C)Cl)C(O)[C@@H](O)[C@H]1O (stereo partly drawn) [FSA-511046]		0.5 (≈ 0.926 µM)	≤ 0.06	≤ 0.06	1 (≈ 1.85 µM)		8 (≈ 14.8 µM)	MIC (S. aureus ATCC 29213; S. aureus ATCC 29213): 1 µg/mL (≈ 1.85 µM); MIC (E. coli ATCC 15922): > 64 µg/mL
CSC1O[C@H]([C@H](NC(=O)[C@H]2NC[C@@H]3C=C(c4ccc(F)cc4F)CCO[C@@H]23)[C@H](C)Cl)C(O)[C@@H](O)[C@H]1O (stereo partly drawn) [FSA-511072]	1 (≈ 1.82 µM)	1 (≈ 1.82 µM)		0.95 (≈ 1.73 µM)	4 (≈ 7.29 µM)	> 64		MIC (S. aureus BAA 977 iErmA): 1 µg/mL (≈ 1.82 µM); MIC (S. aureus MMX 3035 cErmA): > 64 µg/mL; MIC [2]: > 64 µg/mL; MIC [3]: > 64 µg/mL; MIC (H. influenzae ATCC 49247; [8]): > 64 µg/mL
CSC1O[C@H]([C@H](NC(=O)[C@H]2NC[C@@H]3C=C(c4cc(F)cc(F)c4)CCO[C@@H]23)[C@H](C)Cl)C(O)[C@@H](O)[C@H]1O (stereo partly drawn) [FSA-511074]	2 (≈ 3.64 µM)	1 (≈ 1.82 µM)		0.5 (≈ 0.911 µM)	4 (≈ 7.29 µM)	> 64		MIC (S. aureus BAA 977 iErmA): 2 µg/mL (≈ 3.64 µM); MIC (S. aureus MMX 3035 cErmA): > 64 µg/mL; MIC [2]: > 64 µg/mL; MIC [3]: > 64 µg/mL; MIC (H. influenzae ATCC 49247; [8]): > 64 µg/mL
CSC1O[C@H]([C@H](NC(=O)[C@H]2NC[C@@H]3C[C@@H](C4CCNCC4)CCO[C@H]32)[C@H](C)Cl)C(O)[C@@H](O)[C@H]1O (stereo partly drawn) [FSA-512011]	8 (≈ 15.3 µM)	8 (≈ 15.3 µM)	1 (≈ 1.92 µM)	4 (≈ 7.66 µM)			> 256	MIC [4]: > 256 µg/mL; MIC (H. influenzae ATCC 49247): > 256 µg/mL; MIC (E. coli ATCC 25922): > 256 µg/mL
CSC1O[C@H]([C@H](NC(=O)[C@H]2NC[C@@H]3C[C@@H](C4CCN(C)CC4)CCO[C@H]32)[C@H](C)Cl)C(O)[C@@H](O)[C@H]1O (stereo partly drawn) [FSA-512012]	8 (≈ 14.9 µM)	8 (≈ 14.9 µM)	1 (≈ 1.87 µM)	4 (≈ 7.46 µM)			> 256	MIC [4]: > 256 µg/mL; MIC (H. influenzae ATCC 49247): > 256 µg/mL; MIC (E. coli ATCC 25922): > 256 µg/mL
CSC1O[C@H]([C@H](NC(=O)[C@H]2NC[C@@H]3C=C(c4ccc(C)cc4)CCO[C@@H]23)[C@H](C)Cl)C(O)[C@@H](O)[C@H]1O (stereo partly drawn) [FSA-512075]	0.5 (≈ 0.949 µM)				2 (≈ 3.79 µM)	> 256		
CSC1O[C@H]([C@H](NC(=O)[C@H]2NC[C@@H]3C[C@@H](c4ccc(C)cc4)CCO[C@H]32)[C@H](C)Cl)C(O)[C@@H](O)[C@H]1O (stereo partly drawn) [FSA-512079b]		0.5 (≈ 0.945 µM)		≤ 0.12	1 (≈ 1.89 µM)	> 128	8 (≈ 15.1 µM)	MIC (S. aureus ATCC 29213; [9]): 0.5 µg/mL (≈ 0.945 µM)
CSC1O[C@H]([C@H](NC(=O)[C@H]2NC[C@@H]3C[C@H](c4ccc(C)cc4)CCO[C@H]32)[C@H](C)Cl)C(O)[C@@H](O)[C@H]1O (stereo partly drawn) [FSA-512079c]		0.5 (≈ 0.945 µM)		≤ 0.12	2 (≈ 3.78 µM)	> 128	8 (≈ 15.1 µM)	MIC (S. aureus ATCC 29213; [9]): 0.5 µg/mL (≈ 0.945 µM)
COc1ccc([C@@H]2CCO[C@@H]3[C@H](CN[C@@H]3C(=O)N[C@H]([C@H](C)Cl)[C@H]3OC(SC)[C@H](O)[C@H](O)C3O)C2)cc1 (stereo partly drawn) [FSA-512080c]								MIC (H. influenzae ATCC 49247; [8]): 37 µg/mL (≈ 67.9 µM)
